Patent US4001237A, “Oxazole, isoxazole, thiazole and isothiazole amides” (priority 1976, dated 1977)
Structures can show the parent of a compound that is named as a salt. Where two headings read alike, the source gives them in different places. One block for each compound: values may come before it.

What was measured:
[1] = system: spontaneous hypertensive rats; assay: Antihypertensive activity by oral administration to spontaneous hypertensive rats; type: in vivo, rat; settings: for change in vivo at 1 mg/kg / change in vivo at 3 mg/kg / change in vivo at 10 mg/kg: Rattus norvegicus, read-out: Antihypertensive Activity % Blood Pressure Change
Description: (§1) In the following table, antihypertensive acitvity was determined by oral administration to spontaneous hypertensive rats, and the in vitro and in vivo α-adrenergic receptor blocking effect was determined by tests described following the table. In the in vitro test, the inhibition by the test drug of norepinephrine induced contractions of rat seminal vesicles was measured; and in the in vivo test, the inhibition by the test drug of norepinephrine induced pressor responses in anesthetized dogs was measured.

[2] = biological target: T1, α-adrenergic receptor (Rattus norvegicus, UniProt P43140); assay: Isolated rat seminal vesicle assay: inhibition of norepinephrine induced contractions; type: cell-based; settings: relative to prazosin; test compound 10 nanograms/ml; shift of norepinephrine ED50, rat seminal vesicle
T1 construct: Seminal vesicles were removed and transfered to a shallow dish containing modified Tyrode's solution; from tissue; host or cells: isolated seminal vesicle of male Long Evans rats
T1 sequence (P43140 1-466): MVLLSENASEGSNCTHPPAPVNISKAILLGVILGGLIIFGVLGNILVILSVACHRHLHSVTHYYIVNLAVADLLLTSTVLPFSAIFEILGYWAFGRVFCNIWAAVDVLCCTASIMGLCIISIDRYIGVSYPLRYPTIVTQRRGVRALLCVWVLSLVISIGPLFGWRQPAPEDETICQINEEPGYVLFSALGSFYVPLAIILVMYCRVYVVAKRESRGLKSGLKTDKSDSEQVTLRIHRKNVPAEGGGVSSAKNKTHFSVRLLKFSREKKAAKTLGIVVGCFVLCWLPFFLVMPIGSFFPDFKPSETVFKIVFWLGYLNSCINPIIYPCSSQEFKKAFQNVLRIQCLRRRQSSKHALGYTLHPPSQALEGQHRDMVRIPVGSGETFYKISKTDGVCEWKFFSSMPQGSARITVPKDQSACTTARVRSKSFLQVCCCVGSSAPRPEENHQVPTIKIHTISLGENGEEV
Description: as §1
Dangan et al., Int. j. […] Lietch et al., Brit.
Male Long Evans rats weighing approximately 300 g. were sacrificed by a sharp blow on the head. Seminal vesicles were removed and transfered to a shallow dish containing modified Tyrode's solution. The vesicles were emptied of their contents by squeezing them gently with a pair of forceps. Silk thread (4-0) was attached to both ends of the vesicle and it was suspended in a 20 ml. muscle chamber containing modified oxygenated Tyrode's solution (g./liter: NaCl 8, KCl 0.2, CaCl2 0.26, NaHCO3 1, Na2 HPO4 0.575, glucose 0.5 and MgCl2 0.02). The bathing fluid was maintained at 37° C. with a thermostatically controlled isolated organ tissue bath. Contractions were recorded isometrically by means of a force displacement transducer and recordings were made with a Beckman RP Dynograph. Norepinephrine (NE) was added to the muscle chamber in volumes ranging from 0.1 to 0.4 ml. with a 1 ml. syringe attached to a 3 inch 20 gauge needle. NE and test compounds were dissolved in deionized water.
NE dose response curves were obtained alone and in the presence of test compounds. NE was allowed to remain in contact with the strip until a maximal contraction was obtained. The strip was then washed with the perfusion fluid for 15-30 seconds and the preparation was allowed to return to base line before a subsequent dose of NE was given. Increasing amounts of NE were injected into the bath in the same manner until a complete dose response was obtained.
The seminal vesicles used to obtain the control NE dose response were discarded and new preparations were placed in the tissue bath for evaluation of the test compound. The test compound was added directly to the perfusion fluid (10 nanograms/ml.) and the strips were allowed to remain in contact with the bathing media for at least 10 minutes before the NE dose response was determined. Seminal vesicles from the same rat were used for control and for test drug.
ED50 values for NE were obtained by regression analysis as described by Finney, Probit, Analysis, 2d Ed., Cambridge (1964). A minimum of 4 strips and at least 4 doses were employed to calculate the regression lines. The ED50 value is defined as the concentration of NE which produces a contraction equal to 50% of the maximal contraction.

[3] = system: α-adrenergic receptor; assay: Anesthetized dog assay for α-adrenergic blocking agents: inhibition of norepinephrine induced pressor responses; type: in vivo; settings: relative to prazosin; test drug 3 mg./kg. iv; norepinephrine dose raising blood pressure by 50 mm. of Hg; anesthetized dogs
Description: as §1
Thus, blood pressure responses to norepinephrine (NE) in anesthetized dogs was used as a comparative assay for α-adrenergic receptor blocking properties of drugs.
Experiments were done on mongrel dogs anesthetized with sodium pentobarbital, 30 mg./kg. iv. The left femoral artery was cannulated to record aortic blood pressure and a femoral vein was cannulated for administration of drugs. All animals underwent a bilateral vagotomy. A norepinephrine dose-response curve was obtained by administering increasing doses of iv norepinephrine (0.01 - 1 μg./kg.). The test drug was then administered iv at 3 mg./kg. Approximately 30 minutes later a dose-response curve was again established for iv norepinephrine (0.01-10 μg./kg.).

[4] = dose 1 mg/kg, oral, spontaneous hypertensive rats
[5] = dose 3 mg/kg, oral, spontaneous hypertensive rats
[6] = dose 10 mg/kg, oral, spontaneous hypertensive rats
[7] = oral, spontaneous hypertensive rats

α-Adrenergic Receptor Blocking Effect In Vitro Activity Ratio [2]: 0.11
SMILES: COc1cc2nc(N3CCN(C(=O)c4ccno4)CC3)nc(N)c2cc1OC [Example 1, 4-Amino-6,7-dimethyoxy-2-[4-(isoxazole-5-carbonyl)-piperazine-1-yl]quinazoline Hydrochloride]
change in vivo at 1 mg/kg [1, 4]: -15%
change in vivo at 3 mg/kg [1, 5]: -26%
change in vivo at 10 mg/kg [1, 6]: -35%
α-Adrenergic Receptor Blocking Effect In Vivo Activity Ratio [3]: 0.18

SMILES: COc1cc2nc(N3CCN(C(=O)c4ccon4)CC3)nc(N)c2cc1OC [Example 2, 4-Amino-6,7-dimethoxy-2-[4-(isoxazole-3-carbonyl)-piperazin-1-yl]quinazoline Hydrochloride]
change in vivo at 1 mg/kg [1, 4]: -12%
change in vivo at 3 mg/kg [1, 5]: -26%
change in vivo at 10 mg/kg [1, 6]: -32%

SMILES: COc1cc2nc(N3CCN(C(=O)c4cnoc4)CC3)nc(N)c2cc1OC.Cl [Example 3, 4-Amino-6,7-dimethoxy-2-[4-(isoxazole-4-carbonyl)-piperazin-1-yl]quinazoline Hydrochloride]
change in vivo at 1 mg/kg [1, 4]: -13%
change in vivo at 3 mg/kg [1, 5]: -23%
change in vivo at 10 mg/kg [1, 6]: -35%
α-Adrenergic Receptor Blocking Effect In Vitro Activity Ratio [2]: 0.92

SMILES: COc1cc2nc(N3CCN(C(=O)c4cc(C)on4)CC3)nc(N)c2cc1OC.Cl [Example 4, 4-Amino-6,7-dimethoxy-2-[4-(5-methylisoxazole-3-carbonyl)piperazin-1-yl]quinazoline Hydrochloride]
change in vivo at 1 mg/kg [1, 4]: -14%
change in vivo at 3 mg/kg [1, 5]: -18%
change in vivo at 10 mg/kg [1, 6]: -41%
α-Adrenergic Receptor Blocking Effect In Vivo Activity Ratio [3]: 0.24

SMILES: COc1cc2nc(N3CCN(C(=O)c4conc4C)CC3)nc(N)c2cc1OC.Cl [Example 5, 4-Amino-6,7-dimethoxy-2-[4-(3-methylisoxazole-4-carbonyl)piperazin-1-yl]quinazoline Hydrochloride]
change in vivo at 1 mg/kg [1, 4]: -17%
change in vivo at 3 mg/kg [1, 5]: -29%
change in vivo at 10 mg/kg [1, 6]: -33%
α-Adrenergic Receptor Blocking Effect In Vitro Activity Ratio [2]: 0.30
α-Adrenergic Receptor Blocking Effect In Vivo Activity Ratio [3]: 0.18

SMILES: COc1cc2nc(N3CCN(C(=O)c4cc(C)no4)CC3)nc(N)c2cc1OC.Cl [Example 6, 4-Amino-6,7-dimethoxy-2-[4-(3-methylisoxazole-5-carbonyl)piperazin-1-yl]quinazoline Hydrochloride]
change in vivo at 1 mg/kg [1, 4]: -18%
change in vivo at 3 mg/kg [1, 5]: -21%
change in vivo at 10 mg/kg [1, 6]: -37%
α-Adrenergic Receptor Blocking Effect In Vitro Activity Ratio [2]: 0.25

SMILES: COc1cc2nc(N3CCN(C(=O)c4cocn4)CC3)nc(N)c2cc1OC.Cl [Example 7, 4-Amino-6,7-dimethoxy-2-[4-(oxazole-4-carbonyl)piperazin-1-yl]quinazoline Hydrochloride]
change in vivo at 1 mg/kg [1, 4]: -15%
change in vivo at 3 mg/kg [1, 5]: -29%
change in vivo at 10 mg/kg [1, 6]: -45%
α-Adrenergic Receptor Blocking Effect In Vitro Activity Ratio [2]: 0.6
α-Adrenergic Receptor Blocking Effect In Vivo Activity Ratio [3]: 1.22

SMILES: COc1cc2nc(N3CCN(C(=O)c4coc(C)n4)CC3)nc(N)c2cc1OC.Cl [Example 8, 4-Amino-6,7-dimethoxy-2-[4-(2-methyloxazole-4-carbonyl)piperazin-1-yl]quinazoline Hydrochloride]
change in vivo at 1 mg/kg [1, 4]: -13%
change in vivo at 3 mg/kg [1, 5]: -31%
change in vivo at 10 mg/kg [1, 6]: -35%
α-Adrenergic Receptor Blocking Effect In Vitro Activity Ratio [2]: 0.17

SMILES: COc1cc2nc(N3CCN(C(=O)c4ocnc4C)CC3)nc(N)c2cc1OC.Cl [Example 9, 4-Amino-6,7-dimethoxy-2-[4-(4-methyloxazole-5-carbonyl)piperazin-1-yl]quinazoline Hydrochloride]
change in vivo at 1 mg/kg [1, 4]: -14%
change in vivo at 3 mg/kg [1, 5]: -26%
change in vivo at 10 mg/kg [1, 6]: -41%
α-Adrenergic Receptor Blocking Effect In Vitro Activity Ratio [2]: 0.19

SMILES: COc1cc2nc(N3CCN(C(=O)c4cnsc4)CC3)nc(N)c2cc1OC.Cl [Example 10, 4-Amino-6,7-dimethoxy-2-[4-(isothiazole-4-carbonyl)piperazin-1-yl)quinazoline Hydrochloride]
change in vivo at 1 mg/kg [1, 4]: -14%
change in vivo at 3 mg/kg [1, 5]: -23%
change in vivo at 10 mg/kg [1, 6]: -25%
"plateauing" dose response effect on blood pressure lowering [1, 7]: maximum blood pressure lowering effect is seen at 3 mg./kg. which could not be increased at higher doses

SMILES: COc1cc2nc(N3CCN(C(=O)c4nccs4)CC3)nc(N)c2cc1OC [Example 11, 4-Amino-6,7-dimethoxy-2-[4-thiazole-2-carbonyl)piperazin-1-yl]quinazoline Hydrochloride]
change in vivo at 1 mg/kg [1, 4]: -14%
change in vivo at 3 mg/kg [1, 5]: -27%
change in vivo at 10 mg/kg [1, 6]: -33%

α-Adrenergic Receptor Blocking Effect In Vitro Activity Ratio [2]: 0.12
SMILES: COc1cc2nc(N3CCN(C(=O)c4cscn4)CC3)nc(N)c2cc1OC [Example 12]
change in vivo at 1 mg/kg [1, 4]: -20%
change in vivo at 3 mg/kg [1, 5]: -24%
change in vivo at 10 mg/kg [1, 6]: -32%

α-Adrenergic Receptor Blocking Effect In Vitro Activity Ratio [2]: 0.02
SMILES: COc1cc2nc(N3CCN(C(=O)c4csc(C)n4)CC3)nc(N)c2cc1OC [Example 13, 4-Amino-6,7-dimethyoxy-2-[4-(2-methylthiazole-4-carbonyl)piperazin-1-yl]quinazoline Hydrochloride]
change in vivo at 1 mg/kg [1, 4]: -19%
change in vivo at 3 mg/kg [1, 5]: -28%
change in vivo at 10 mg/kg [1, 6]: -28%
"plateauing" dose response effect on blood pressure lowering [1, 7]: maximum blood pressure lowering effect is seen at 3 mg./kg. which could not be increased at higher doses

SMILES: COc1cc2nc(N3CCN(C(=O)c4cncs4)CC3)nc(N)c2cc1OC.Cl [Example 14, 4-Amino-6,7-dimethoxy-2-[4-(thiazole-5-carbonyl)piperazin-1-yl]quinazoline Hydrochloride]
change in vivo at 1 mg/kg [1, 4]: -12%
change in vivo at 3 mg/kg [1, 5]: -22%
change in vivo at 10 mg/kg [1, 6]: -33%
α-Adrenergic Receptor Blocking Effect In Vitro Activity Ratio [2]: 0.10

α-Adrenergic Receptor Blocking Effect In Vitro Activity Ratio [2]: 0.19
SMILES: COc1cc2nc(N3CCN(C(=O)c4cnc(C)s4)CC3)nc(N)c2cc1OC [Example 15, 4-Amino-6,7-dimethyoxy-2-[4-(2-methylthiazole-5-carbonyl)piperazin-1-yl]quinazoline Hydrochloride]
change in vivo at 1 mg/kg [1, 4]: -20%
change in vivo at 3 mg/kg [1, 5]: -25%
change in vivo at 10 mg/kg [1, 6]: -37%
α-Adrenergic Receptor Blocking Effect In Vivo Activity Ratio [3]: 0.09

SMILES: COc1cc2nc(N3CCN(C(=O)c4scnc4C)CC3)nc(N)c2cc1OC.Cl [Example 16, 4-Amino-6,7-dimethoxy-2-[4-(4-methylthiazole-5-carbonyl)piperazin-1-yl]quinazoline Hydrochloride]
change in vivo at 1 mg/kg [1, 4]: -4%
change in vivo at 3 mg/kg [1, 5]: -22%
change in vivo at 10 mg/kg [1, 6]: -28%
α-Adrenergic Receptor Blocking Effect In Vitro Activity Ratio [2]: 0.35

SMILES: COc1cc2nc(N3CCN(C(=O)c4ccco4)CC3)nc(N)c2cc1OC [Prazosin, 2-[4-(2-furoyl)-piperazin-1-yl]-4-amino-6,7-dimethoxyquinazoline, reference compound]
change in vivo at 1 mg/kg ([1]; po): -14%
change in vivo at 3 mg/kg ([1]; po): -29%
change in vivo at 10 mg/kg ([1]; po): -42%
